# Source: patent publication US10004701B2, “Methods and compositions for treating infection” (UNIVERSITY OF ROCHESTER, priority 2012, dated 2018)
# Where a name gives a salt, the structure may show the parent alone. Read-outs that look alike come from different tables or passages of the source.
# Columns and labels:
# Assay in all cases: AK assay 384-well format, Prestwick library screening
# [1] = system: S. aureus strain USA300-0114; format: cell-based, Staphylococcus aureus; settings: 50 μM final drug concentration; for fold induction at 50 µM: Staphylococcus aureus, USA300, 3 h
# [2] = system: A. baumannii strain 98-37-09; format: cell-based, Acinetobacter baumannii; settings: 50 μM final drug concentration; for fold induction at 50 µM: Acinetobacter baumannii, 983709, 3 h
# E. cloacae = format: cell-based, Enterobacter cloacae; settings: 50 μM final drug concentration; for fold induction at 50 µM: Enterobacter cloacae, 3 h
# E. coli = format: cell-based, Escherichia coli; settings: 50 μM final drug concentration; for fold induction at 50 µM: Escherichia coli, 3 h
# P. aeruginosa = format: cell-based, Pseudomonas aeruginosa; settings: 50 μM final drug concentration; for fold induction at 50 µM: Pseudomonas aeruginosa, 3 h
# K. pneumoniae = format: cell-based, Klebsiella pneumoniae; settings: 50 μM final drug concentration; for fold induction at 50 µM: Klebsiella pneumoniae, 3 h
# E. faecium = format: cell-based, Enterococcus faecium; settings: 50 μM final drug concentration; for fold induction at 50 µM: Enterococcus faecium, 3 h
# [3] = 384-well format, cutoff for positive-scoring molecules 3-fold increase, read-out: AK-based Prestwick Library Screening Results, S. aureus (increase in extracellular AK activity)
# [4] = 384-well format, cutoff for positive-scoring molecules 3-fold increase, read-out: AK-based Prestwick Library Screening Results, A. baumannii (increase in extracellular AK activity)
# [5] = 384-well format, cutoff for positive-scoring molecules 3-fold increase, read-out: AK-based Prestwick Library Screening Results, E. cloacae (increase in extracellular AK activity)
# [6] = 384-well format, cutoff for positive-scoring molecules 3-fold increase, read-out: AK-based Prestwick Library Screening Results, E. coli (increase in extracellular AK activity)
# [7] = 384-well format, cutoff for positive-scoring molecules 3-fold increase, read-out: AK-based Prestwick Library Screening Results, P. aeruginosa (increase in extracellular AK activity)
# [8] = 384-well format, cutoff for positive-scoring molecules 3-fold increase, read-out: AK-based Prestwick Library Screening Results, K. pneumoniae (increase in extracellular AK activity)
# [9] = 384-well format, cutoff for positive-scoring molecules 3-fold increase, read-out: AK-based Prestwick Library Screening Results, E. faecium (increase in extracellular AK activity)
smiles,measurement,setting,value
N[C@@H]1CONC1=O [D-cycloserine],"AK-based Prestwick library screening result, S. aureus (fold increase in extracellular AK activity)","[1]; planktonic S. aureus, positive cutoff 3-fold increase",1.4
same,"AK-based Prestwick library screening result, A. baumannii (fold increase in extracellular AK activity)","[2]; planktonic A. baumannii, positive cutoff 3-fold increase",1.0
same,"AK-based Prestwick library screening result, E. cloacae (fold increase in extracellular AK activity)","E. cloacae; planktonic E. cloacae, positive cutoff 3-fold increase",1.2
same,"AK-based Prestwick library screening result, E. coli (fold increase in extracellular AK activity)","E. coli; planktonic E. coli, positive cutoff 3-fold increase",1.4
same,"AK-based Prestwick library screening result, P. aeruginosa (fold increase in extracellular AK activity)","P. aeruginosa; planktonic P. aeruginosa, positive cutoff 3-fold increase",1.2
same,"AK-based Prestwick library screening result, K. pneumoniae (fold increase in extracellular AK activity)","K. pneumoniae; planktonic K. pneumoniae, positive cutoff 3-fold increase",1.1
same,"AK-based Prestwick library screening result, E. faecium (fold increase in extracellular AK activity)","E. faecium; planktonic E. faecium, positive cutoff 3-fold increase",1.2
COc1ccccc1N1CCN(CCCCNC(=O)c2ccc3ccccc3c2)CC1 [DO 897/99],"AK-based Prestwick Library Screening Results, S. aureus (fold increase in extracellular AK activity)","[1]; planktonic, […]",1.1
same,"AK-based Prestwick Library Screening Results, A. baumannii (fold increase in extracellular AK activity)","[2]; planktonic, […]",1.2
same,"AK-based Prestwick Library Screening Results, E. cloacae (fold increase in extracellular AK activity)","E. cloacae; planktonic, […]",1.7
same,"AK-based Prestwick Library Screening Results, E. coli (fold increase in extracellular AK activity)","E. coli; planktonic, […]",1.4
same,"AK-based Prestwick Library Screening Results, P. aeruginosa (fold increase in extracellular AK activity)","P. aeruginosa; planktonic, […]",1.3
same,"AK-based Prestwick Library Screening Results, K. pneumoniae (fold increase in extracellular AK activity)","K. pneumoniae; planktonic, […]",1.3
same,"AK-based Prestwick Library Screening Results, E. faecium (fold increase in extracellular AK activity)","E. faecium; planktonic, […]",1.0
CN(C)/N=N/c1[nH]cnc1C(N)=O [Dacarbazine],fold induction at 50 µM,"[1]; planktonic S. aureus, cutoff for positive-scoring molecules 3-fold increase, read-out: AK-based Prestwick Library Screening Results, S. aureus (increase in extracellular AK activity)",0.7
same,fold induction at 50 µM,"[2]; planktonic A. baumannii, cutoff for positive-scoring molecules 3-fold increase, read-out: AK-based Prestwick Library Screening Results, A. baumannii (increase in extracellular AK activity)",1.6
same,fold induction at 50 µM,"E. cloacae; planktonic E. cloacae, cutoff for positive-scoring molecules 3-fold increase, read-out: AK-based Prestwick Library Screening Results, E. cloacae (increase in extracellular AK activity)",0.8
same,fold induction at 50 µM,"E. coli; planktonic E. coli, cutoff for positive-scoring molecules 3-fold increase, read-out: AK-based Prestwick Library Screening Results, E. coli (increase in extracellular AK activity)",2
same,fold induction at 50 µM,"P. aeruginosa; planktonic P. aeruginosa, cutoff for positive-scoring molecules 3-fold increase, read-out: AK-based Prestwick Library Screening Results, P. aeruginosa (increase in extracellular AK activity)",0.9
same,fold induction at 50 µM,"K. pneumoniae; planktonic K. pneumoniae, cutoff for positive-scoring molecules 3-fold increase, read-out: AK-based Prestwick Library Screening Results, K. pneumoniae (increase in extracellular AK activity)",3.8
same,fold induction at 50 µM,"E. faecium; planktonic E. faecium, cutoff for positive-scoring molecules 3-fold increase, read-out: AK-based Prestwick Library Screening Results, E. faecium (increase in extracellular AK activity)",1.1
C#C[C@]1(O)CC[C@H]2[C@@H]3CCC4=Cc5oncc5C[C@]4(C)[C@H]3CC[C@@]21C [Danazol],fold induction at 50 µM,[1]; [3],0.6
same,fold induction at 50 µM,[2]; [4],0.9
same,fold induction at 50 µM,E. cloacae; [5],0.9
same,fold induction at 50 µM,E. coli; [6],0.7
same,fold induction at 50 µM,P. aeruginosa; [7],0.8
same,fold induction at 50 µM,K. pneumoniae; [8],0.6
same,fold induction at 50 µM,E. faecium; [9],0.9
O=C1CN(/N=C/c2ccc(-c3ccc([N+](=O)[O-])cc3)o2)C(O)=N1 [Dantrolene sodium salt],fold induction at 50 µM,"[1]; planktonic S. aureus, 384-well, cutoff for positive-scoring molecules 3-fold increase, read-out: AK-based Prestwick Library Screening Results: S. aureus (increase in extracellular AK activity)",1.1
same,fold induction at 50 µM,"[2]; planktonic A. baumannii, 384-well, cutoff for positive-scoring molecules 3-fold increase, read-out: AK-based Prestwick Library Screening Results: A. baumannii (increase in extracellular AK activity)",1.1
same,fold induction at 50 µM,"E. cloacae; planktonic E. cloacae, 384-well, cutoff for positive-scoring molecules 3-fold increase, read-out: AK-based Prestwick Library Screening Results: E. cloacae (increase in extracellular AK activity)",1.5
same,fold induction at 50 µM,"E. coli; planktonic E. coli, 384-well, cutoff for positive-scoring molecules 3-fold increase, read-out: AK-based Prestwick Library Screening Results: E. coli (increase in extracellular AK activity)",1
same,fold induction at 50 µM,"P. aeruginosa; planktonic P. aeruginosa, 384-well, cutoff for positive-scoring molecules 3-fold increase, read-out: AK-based Prestwick Library Screening Results: P. aeruginosa (increase in extracellular AK activity)",1.2
same,fold induction at 50 µM,"K. pneumoniae; planktonic K. pneumoniae, 384-well, cutoff for positive-scoring molecules 3-fold increase, read-out: AK-based Prestwick Library Screening Results: K. pneumoniae (increase in extracellular AK activity)",0.9
same,fold induction at 50 µM,"E. faecium; planktonic E. faecium, 384-well, cutoff for positive-scoring molecules 3-fold increase, read-out: AK-based Prestwick Library Screening Results: E. faecium (increase in extracellular AK activity)",1
Nc1ccc(S(=O)(=O)c2ccc(N)cc2)cc1 [Dapsone],fold induction at 50 µM,[1]; [3],0.6
same,fold induction at 50 µM,[2]; [4],1.3
same,fold induction at 50 µM,E. cloacae; [5],1.1
same,fold induction at 50 µM,E. coli; [6],0.8
same,fold induction at 50 µM,P. aeruginosa; [7],0.8
same,fold induction at 50 µM,K. pneumoniae; [8],0.7
same,fold induction at 50 µM,E. faecium; [9],0.9
COc1cccc2c1C(=O)c1c(O)c3c(c(O)c1C2=O)C[C@@](O)(C(C)=O)C[C@@H]3O[C@H]1C[C@H](N)[C@H](O)[C@H](C)O1 [Daunorubicin hydrochloride],fold induction at 50 µM,"[1]; planktonic S. aureus, […], read-out: AK-based Prestwick Library Screening Results, S. aureus (increase in extracellular AK activity)",2.1
same,fold induction at 50 µM,"[2]; planktonic A. baumannii, […], read-out: AK-based Prestwick Library Screening Results, A. baumannii (increase in extracellular AK activity)",0.6
same,fold induction at 50 µM,"E. cloacae; planktonic E. cloacae, […], read-out: AK-based Prestwick Library Screening Results, E. cloacae (increase in extracellular AK activity)",0.6
same,fold induction at 50 µM,"E. coli; planktonic E. coli, […], read-out: AK-based Prestwick Library Screening Results, E. coli (increase in extracellular AK activity)",0.9
same,fold induction at 50 µM,"P. aeruginosa; planktonic P. aeruginosa, […], read-out: AK-based Prestwick Library Screening Results, P. aeruginosa (increase in extracellular AK activity)",0.5
same,fold induction at 50 µM,"K. pneumoniae; planktonic K. pneumoniae, […], read-out: AK-based Prestwick Library Screening Results, K. pneumoniae (increase in extracellular AK activity)",0.5
same,fold induction at 50 µM,"E. faecium; planktonic E. faecium, […], read-out: AK-based Prestwick Library Screening Results, E. faecium (increase in extracellular AK activity)",2.3
N=C(N)N1CCc2ccccc2C1 [Debrisoquin sulfate],fold induction at 50 µM,"[1]; planktonic, cutoff for positive 3-fold increase, read-out: AK-based Prestwick Library Screening Results, S. aureus (fold increase in extracellular AK activity)",0.9
same,fold induction at 50 µM,"[2]; planktonic, cutoff for positive 3-fold increase, read-out: AK-based Prestwick Library Screening Results, A. baumannii (fold increase in extracellular AK activity)",0.9
same,fold induction at 50 µM,"E. cloacae; planktonic, cutoff for positive 3-fold increase, read-out: AK-based Prestwick Library Screening Results, E. cloacae (fold increase in extracellular AK activity)",1.7
same,fold induction at 50 µM,"E. coli; planktonic, cutoff for positive 3-fold increase, read-out: AK-based Prestwick Library Screening Results, E. coli (fold increase in extracellular AK activity)",1.2
same,fold induction at 50 µM,"P. aeruginosa; planktonic, cutoff for positive 3-fold increase, read-out: AK-based Prestwick Library Screening Results, P. aeruginosa (fold increase in extracellular AK activity)",1
same,fold induction at 50 µM,"K. pneumoniae; planktonic, cutoff for positive 3-fold increase, read-out: AK-based Prestwick Library Screening Results, K. pneumoniae (fold increase in extracellular AK activity)",0.8
same,fold induction at 50 µM,"E. faecium; planktonic, cutoff for positive 3-fold increase, read-out: AK-based Prestwick Library Screening Results, E. faecium (fold increase in extracellular AK activity)",1
C[N+](C)(C)CCCCCCCCCC[N+](C)(C)C [Decamethonium bromide],fold induction at 50 µM,"[1]; cutoff for positive-scoring molecules 3-fold increase, read-out: AK-based Prestwick Library Screening Results, S. aureus (fold increase in extracellular AK activity)",0.4
same,fold induction at 50 µM,"[2]; cutoff for positive-scoring molecules 3-fold increase, read-out: AK-based Prestwick Library Screening Results, A. baumannii (fold increase in extracellular AK activity)",0.5
same,fold induction at 50 µM,"E. cloacae; cutoff for positive-scoring molecules 3-fold increase, read-out: AK-based Prestwick Library Screening Results, E. cloacae (fold increase in extracellular AK activity)",0.5
same,fold induction at 50 µM,"E. coli; cutoff for positive-scoring molecules 3-fold increase, read-out: AK-based Prestwick Library Screening Results, E. coli (fold increase in extracellular AK activity)",0.5
same,fold induction at 50 µM,"P. aeruginosa; cutoff for positive-scoring molecules 3-fold increase, read-out: AK-based Prestwick Library Screening Results, P. aeruginosa (fold increase in extracellular AK activity)",0.4
same,fold induction at 50 µM,"K. pneumoniae; cutoff for positive-scoring molecules 3-fold increase, read-out: AK-based Prestwick Library Screening Results, K. pneumoniae (fold increase in extracellular AK activity)",0.5
same,fold induction at 50 µM,"E. faecium; cutoff for positive-scoring molecules 3-fold increase, read-out: AK-based Prestwick Library Screening Results, E. faecium (fold increase in extracellular AK activity)",0.9
